Measured values: paper PMC5442318, “Hundreds of dual-stage antimalarial molecules discovered by a functional gametocyte screen” (Nature Communications, 2017)

Legend:
[1] = test system: P. falciparum asexual blood stages; settings: TCAMS asexual blood stage data; ref 1 (Gamo, F. J. et al., Nature 465, 305-310, 2010); read-out: Pf Asexual blood stages XC50; cited from earlier work
[2] = test system: P. falciparum stages IV–V gametocytes; test: Gametocytocidal ATP-depletion assay (gametocyte ATP bioluminescence); type: cell-based, Plasmodium falciparum
Procedure, shortened: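 Read-out is luciferase luminescence of parasite ATP (BacTiter-Glo), standing in for viability. Double-purified mature stage IV–V gametocytes, 12,500 per well, were exposed 48 h at 37 °C in low-O2 gas; screening concentration 2 μM.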

HepG2 cells = test: HepG2 cytotoxicity assay; type: cell-based; settings: HepG2 cells; mean
Procedure, shortened: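 Cell viability is measured by CellTiter-Glo luminescence. Signal is developed at room temperature and read 10 min after adding the reagent, with plates and reagent first equilibrated for 30 min.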

[3] = test system: P. falciparum stage V female gametocytes; test: P. falciparum female gametocyte activation assay (Pf FGAA), 24 h or 48 h preincubation, Pfs25 expression readout; type: cell-based, Plasmodium falciparum NF54; settings: P. falciparum female gametocytes; mean; read-out: Gametocytes mean Pf FGAA IC50
Procedure, shortened: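 Female activation, triggered by xanthurenic acid and cooling, was scored by imaging Cy3-labelled anti-Pfs25 female gametes after 24 h at 26 °C. Beforehand, purified NF54 stage V gametocytes had been incubated with compound for either 24 h or 48 h (37 °C, 3% O2). Values are pIC50 from full-curve regression.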

Compound | IC50 [1] | Gametocytes mean ATP inhibition at 2µM [2] | HepG2 cells mean TOX50 (HepG2 cells) | IC50 [3]
O=C(O)C(F)(F)F.O=S(=O)(NCCN1CCCC1)c1cccc(-c2ccc(CNC3Cc4ccccc4C3)cc2)c1 [TCMDC-132241] | 660 nM | 3.92% | 6.46 µM | 3100 nM
Cc1cc(-c2ccc(CNC3Cc4ccccc4C3)cc2)ccc1S(=O)(=O)NCCN1CCCC1.O=C(O)C(F)(F)F [TCMDC-132243] | 700 nM | 16.13% | 5.31 µM | 1830 nM
COc1ccc(CNC2Cc3ccccc3C2)cc1-c1ccc(S(=O)(=O)NCCN2CCCC2)cc1.O=C(O)C(F)(F)F [TCMDC-132248] | 580 nM | 20.60% | 5.89 µM | 1990 nM
COc1ccc(CNC2Cc3ccccc3C2)cc1-c1ccc(OC)c(S(=O)(=O)NCCN2CCCC2)c1.O=C(O)C(F)(F)F [TCMDC-132251] | 770 nM | 24.03% | 7.17 µM | 2700 nM
COc1ccc(CNC2CCN(C)CC2)cc1-c1ccc(S(=O)(=O)NCc2ccccc2)s1.O=C(O)C(F)(F)F [TCMDC-132253] | 230 nM | -2.80% | 5.50 µM | 1750 nM
COc1ccc(CNC2Cc3ccccc3C2)cc1-c1ccc(S(=O)(=O)NCCN2CCCC2)s1.O=C(O)C(F)(F)F [TCMDC-132258] | 190 nM | 59.91% | 5.31 µM | 1390 nM
COc1ccc(CNC2Cc3ccccc3C2)cc1-c1ccc(S(=O)(=O)NCCN2CCCC2)c(F)c1.O=C(O)C(F)(F)F [TCMDC-132266] | 720 nM | 7.12% | 6.03 µM | 1950 nM
Cl.N[C@@H](CCNC1CCN(c2cccc(C(F)(F)F)c2)CC1)Cc1ccc(F)c(F)c1 [TCMDC-132301] | 1280 nM | 70.53% | 3.76 µM | 440 nM
Cc1ccc(Cn2nc(N3CCNCC3)ccc2=O)cc1NC(=O)Nc1ccc(-c2ccccc2)cc1.O=C(O)C(F)(F)F [TCMDC-132580] | 840 nM | 1.45% | 7.42 µM | 1940 nM
O=S(=O)(Nc1cccc(F)c1CNCc1ccccn1)c1ccc(Cl)c(Cl)c1 [TCMDC-132598] | 890 nM | 51.32% | 20.42 µM | 1360 nM
NCc1ccc(CNCc2cccc(-c3ccc(-c4nc5cc(C(F)(F)F)ccc5[nH]4)cc3)c2)cc1.O=C(O)C(F)(F)F [TCMDC-132811] | 260 nM | -6.09% | 14.65 µM | 830 nM
NCc1ccc(CNCc2ccc(-c3ccc(-c4nc5cc(C(F)(F)F)ccc5[nH]4)s3)cc2)cc1.O=C(O)C(F)(F)F [TCMDC-132814] | 160 nM | 6.11% | 8.32 µM | 1020 nM
CNCCNCc1ccc(-c2ccc(-c3nc4cc(C(F)(F)F)ccc4[nH]3)s2)cc1.O=C(O)C(F)(F)F [TCMDC-132838] | 600 nM | -8.87% | 6.10 µM | 1280 nM
FC(F)(F)c1ccc2[nH]c(-c3ccc(-c4ccc(CNCCN5CCNCC5)cc4)s3)nc2c1.O=C(O)C(F)(F)F [TCMDC-132862] | 910 nM | -0.18% | 12.88 µM | 3000 nM
FC(F)(F)c1ccc2[nH]c(-c3ccc(-c4cccc(CNCCN5CCNCC5)c4)cc3)nc2c1.O=C(O)C(F)(F)F [TCMDC-132864] | 1030 nM | 10.30% | 12.31 µM | 1710 nM
FC(F)(F)c1ccc2[nH]c(-c3cccc(-c4cccc(CNCCN5CCNCC5)c4)c3)nc2c1.O=C(O)C(F)(F)F [TCMDC-132871] | 940 nM | 0.88% | 6.61 µM | 1220 nM
FC(F)(F)c1ccc2[nH]c(-c3cccc(-c4ccc(CNCCN5CCNCC5)cc4)c3)nc2c1.O=C(O)C(F)(F)F [TCMDC-132872] | 860 nM | -15.41% | 8.81 µM | 1790 nM
CCCN(CC1CC1)c1ncc(-c2cccc(CNCCC3CCCN3C)c2)cn1 (centres unmarked) [TCMDC-133142] | 750 nM | 6.70% | 3.09 µM | 2180 nM

Compound | IC50 [1] | Gametocytes mean ATP inhibition at 2µM [2] | HepG2 cells mean TOX50 (HepG2 cells) | IC50 [3]
CN(CCc1ccccc1)c1ncc(-c2cccc(CNCCC3CCCN3C)c2)cn1 (centres unmarked) [TCMDC-133143] | 870 nM | 11.85% | 2.88 µM | 1360 nM
CN1CCCC1CCNCc1cccc(-c2cnc(N3CCCC(C)(C)C3)nc2)c1 (centres unmarked) [TCMDC-133144] | 930 nM | 3.15% | 4.63 µM | 1670 nM
O=C(Nc1cccc(-c2cccc(-c3nc4cc(C(F)(F)F)ccc4[nH]3)c2)c1)Nc1ccc(F)c(F)c1F [TCMDC-133229] | 120 nM | -42.33% | 3.43 µM | 1400 nM
COc1cc(-c2cc(-c3ccc(S(C)(=O)=O)cc3)cnc2N)ccc1O [TCMDC-133343] | 100 nM | 57.72% | 41.69 µM | 390 nM
COc1ccccc1C1CCN(C2CCC(NC(=O)c3ccc4[nH]c(-c5ccc(C)cc5)nc4c3)CC2)CC1 (centres unmarked) [TCMDC-133556] | 310 nM | 22.02% | 3.99 µM | 2490 nM
CN1CCC(N2CCN(Cc3cccc(-c4ccc(-c5nc6cc(C(F)(F)F)ccc6[nH]5)cc4)c3)CC2)CC1.O=C(O)C(F)(F)F [TCMDC-133842] | 140 nM | 4.02% | 2.44 µM | 1090 nM
CN1CCCC(CN2CCN(Cc3cccc(-c4ccc(-c5nc6cc(C(F)(F)F)ccc6[nH]5)cc4)c3)CC2)C1.O=C(O)C(F)(F)F (centres unmarked) [TCMDC-133882] | 150 nM | 1.53% | 4.07 µM | 1300 nM
O=C(O)C(F)(F)F.c1cc(CN2CCC(CCN3CCCCC3)CC2)cc(-c2csc(-c3nc4ccccc4[nH]3)c2)c1 [TCMDC-133919] | 140 nM | 3.61% | 6.04 µM | 2110 nM
Fc1ccc2[nH]c(-c3ccc(-c4ccc(CN5CCC(CCN6CCCCC6)CC5)cc4)cc3)nc2c1.O=C(O)C(F)(F)F [TCMDC-133924] | 130 nM | 11.89% | 3.94 µM | 1700 nM
Fc1ccc2[nH]c(-c3cccc(-c4ccc(CN5CCC(CCN6CCCCC6)CC5)cc4)c3)nc2c1.O=C(O)C(F)(F)F [TCMDC-133940] | 140 nM | -4.48% | 4.79 µM | 1880 nM
FC(F)(F)c1ccc2[nH]c(-c3ccc(-c4cccc(CN5CCC(CCN6CCCCC6)CC5)c4)cc3)nc2c1.O=C(O)C(F)(F)F [TCMDC-133941] | 150 nM | -7.71% | 4.45 µM | 1260 nM
Cn1c(Nc2cc(C(C)(C)C)on2)nc2cc(Nc3ccnc(Nc4cccc(S(=O)(=O)N5CCOCC5)c4)n3)ccc21 [TCMDC-134098] | 530 nM | 17.18% | 8.13 µM | 1190 nM
Cc1cc(Nc2ncc(C#N)c(Nc3ccccc3C(N)=O)n2)ccc1N1CCN(C)CC1.Cl [TCMDC-134115] | 9 nM | 20.18% | 0.40 µM | 1670 nM
Cc1n[nH]c2ccc(-c3ccc4nccc(N5CCC(N)CC5)c4c3)cc12.Cl [TCMDC-134315] | 590 nM | 71.38% | 6.88 µM | 2450 nM
CC(C)c1ccc(CN2CCC(CNC(=O)c3cc(-c4cccc(C(F)(F)F)c4)cs3)C2)cc1.O=C(O)C(F)(F)F (centres unmarked) [TCMDC-134435] | 910 nM | -4.54% | 5.13 µM | 1300 nM
CC(C)c1ccc(CN2CCC(CNC(=O)c3cc(-c4ccccc4F)cs3)C2)cc1.O=C(O)C(F)(F)F (centres unmarked) [TCMDC-134436] | 990 nM | -11.71% | 9.14 µM | 1080 nM
CC(C)c1ccc(CN2CCC(CNC(=O)c3cc(-c4cccc(F)c4)cs3)C2)cc1.O=C(O)C(F)(F)F (centres unmarked) [TCMDC-134437] | 1660 nM | 7.50% | 6.24 µM | 1370 nM
